Experimental data as given in patent US8716285B2, “N-hydroxy-benzamids for the treatment of cancer” (Hoffmann-La Roche Inc., priority 2010, dated 2014).

Legend:
recombinant human HDAC8 = recombinant human HDAC8 (Homo sapiens (Human), UniProt Q9BY41); assay: HDAC8 inhibition: recombinant HDAC8 fluorometric assay; type: biochemical; conditions: recombinant human HDAC8, substrate Ac-Arg-His-Lys-Lys(ε-acetyl)-AMC
Experimental: A competitive inhibitory assay of HDAC8 was carried out by using recombinant HDAC8 and a commercial substrate Ac-Arg-His-Lys-Lys(ε-acetyl)-AMC.
Compounds were tested for their ability to inhibit histone deacetylase 8 using an in vitro deacetylation assay. The enzyme source for this assay was recombinant human HDAC8 protein expressed and purified from insect cells. […] The substrate consisted of a commercial product Ac-Arg-His-Lys-Lys(ε-acetyl)-AMC (substrate is available from Cayman Chemical). […] In a detailed procedure, 8 μl of HDAC8 enzyme solution (0.125 μg/μl) was transferred to assay plates (CORNING 3676). 1 μl of half-log diluted compounds were added into wells and incubated for 15 min at rt. After that, 8 μl of substrate solution was transferred to the wells and incubated for 30 min at rt. After deacetylation of the substrate by incubation with HDAC8 enzyme, subsequent exposure to a developing reagent produced a fluorophore that was directly proportional to the level of deacetylation. So 4 μl of developer regent (Cayman 10006394) was added into the wells in the assay plates and incubated for 15 min. The fluorescence signal was measured by a FlexStation3 plate reader (excitation wave length 340-360 nm; emission wave length 440-465 nm). The IC50 was calculated after normalization and curve fitting using XLfit4.0 software. Inhibition %=[Mean(top)−signal(sample)]*100/[Mean(top)−Mean(bottom)].

HDAC6 = HDAC6 (Homo sapiens (Human), UniProt Q9UBN7); assay: Tubulin acetylation cytoblot assay (A549 cells); type: cell-based; conditions: 17-18 h, concentration for 50% induction of acetylated tubulin, read-out: Tub-ac EC50
Experimental: Tubulin acetylation is a PD marker for HDAC6 inhibition. The extent of tubulin acetylation represents the inhibitory effect on HDAC6.
Novel compounds were tested for their ability to inhibit HDAC6 using a cell-based deacetylation assay. Tubulin acetylation was detected by the anti-acetylated tubulin antibody (Sigma) and horse radish peroxidase (HRP) conjugated secondary antibody (KangChen Bio. Tech.). […] 20 μl of diluted compound solution was transferred to the cell culture plate and incubated for 17-18 h. After medium removal and fixation by formaldehyde (3.7% paraformaldehyde in TBS), the cells in the plates were treated with 180 μl of −20° C. MeOH and incubated for 5 min at rt. The cell lysis was incubated with 75 μl of primary anti-acetylated tubulin antibody and secondary HRP conjugated antibody solution (1:750 anti-acetylated tubulin, 1:750 HRP conjugated anti-mouse IgG in antibody dilution buffer not containing sodium azide) for 4 h at 4° C. By adding the HRP substrate, enhanced chemiluminescence (ECL) reagent (GE Healthcare) generated luminescence corresponding to the level of tubulin acetylation. So that 75 μl of ECL was added into the wells and the luminescence from each well was immediately quantified by the plate reader. Based on the luminescence reading, the IC50s against HDAC6 of the tested compounds were calculated by plotting the curve with XLfit4.0 software. Inhibition %=[signal(sample)−Mean(bottom)]*100/[Mean(top)−Mean(bottom)]

[1] = tested on: p21 promoter-luciferase construct; assay: p21 reporter gene induction in HeLa cells transfected with p21 promoter-luciferase construct; type: cell-based; conditions: for p21 RP3: relative gene level of p21 induced compared to MS275 at 3 μM; for p21 RP10: relative level of p21 induced compared to MS275 at 10 μM; for p21 RP30: relative level of p21 induced compared to MS275 at 30 μM
Experimental: As a surrogate for in-cell HDAC1/2/3 inhibition, p21 induction was used as a counterscreen to evaluate the selectivity of the compounds in the present invention toward HDAC6 or HDAC8.
The novel compounds of the present invention were tested for their ability to induce p21 gene expression using a reporter gene assay involving HeLa cells transfected with a p21 promoter-luciferase construct. The p21 promoter contained the Sp1/Sp3 binding site for HDAC but not the upstream p53 binding site. Briefly, the day before transfection, HeLa cells were seeded at 11,000 cells/well in a 96-well culture plate and incubated at 37° C. in 5% CO2 overnight. A transfection media was prepared prior to transfection according to the following procedure: (1) 5 μl serum-free DMEM, 0.15 μl Fugene 6 reagent, 40 ng p21-luc, 10 ng GFP were mixed gently and incubated at rt for 30 minutes; (2), then 98 μl DMEM (with 10% FBS, 1% penicillin and streptomycin) was added to the DNA: Fugene 6 reagent complex and mixed gently. For transfection, the medium was removed and replaced with 100 μl/well transfection media which was prepared according to the procedure above. After incubating the cells for 24 hours at 37° C. in 5% CO2, fresh media and test compounds were added to the wells and the cells further incubated for 15 hours at 37° C. in 5% CO2. Cells were lysed by adding 80 μl/well of a cell culture lysis reagent (Promega). […] 100 μl luciferase assay reagent (Promega) was then added to every 20 μl cell lysate for luminometer detection. […] Induction activity for specific representative compounds can be found in Table 3.

Sequence of HDAC6 (Q9UBN7 whole entry): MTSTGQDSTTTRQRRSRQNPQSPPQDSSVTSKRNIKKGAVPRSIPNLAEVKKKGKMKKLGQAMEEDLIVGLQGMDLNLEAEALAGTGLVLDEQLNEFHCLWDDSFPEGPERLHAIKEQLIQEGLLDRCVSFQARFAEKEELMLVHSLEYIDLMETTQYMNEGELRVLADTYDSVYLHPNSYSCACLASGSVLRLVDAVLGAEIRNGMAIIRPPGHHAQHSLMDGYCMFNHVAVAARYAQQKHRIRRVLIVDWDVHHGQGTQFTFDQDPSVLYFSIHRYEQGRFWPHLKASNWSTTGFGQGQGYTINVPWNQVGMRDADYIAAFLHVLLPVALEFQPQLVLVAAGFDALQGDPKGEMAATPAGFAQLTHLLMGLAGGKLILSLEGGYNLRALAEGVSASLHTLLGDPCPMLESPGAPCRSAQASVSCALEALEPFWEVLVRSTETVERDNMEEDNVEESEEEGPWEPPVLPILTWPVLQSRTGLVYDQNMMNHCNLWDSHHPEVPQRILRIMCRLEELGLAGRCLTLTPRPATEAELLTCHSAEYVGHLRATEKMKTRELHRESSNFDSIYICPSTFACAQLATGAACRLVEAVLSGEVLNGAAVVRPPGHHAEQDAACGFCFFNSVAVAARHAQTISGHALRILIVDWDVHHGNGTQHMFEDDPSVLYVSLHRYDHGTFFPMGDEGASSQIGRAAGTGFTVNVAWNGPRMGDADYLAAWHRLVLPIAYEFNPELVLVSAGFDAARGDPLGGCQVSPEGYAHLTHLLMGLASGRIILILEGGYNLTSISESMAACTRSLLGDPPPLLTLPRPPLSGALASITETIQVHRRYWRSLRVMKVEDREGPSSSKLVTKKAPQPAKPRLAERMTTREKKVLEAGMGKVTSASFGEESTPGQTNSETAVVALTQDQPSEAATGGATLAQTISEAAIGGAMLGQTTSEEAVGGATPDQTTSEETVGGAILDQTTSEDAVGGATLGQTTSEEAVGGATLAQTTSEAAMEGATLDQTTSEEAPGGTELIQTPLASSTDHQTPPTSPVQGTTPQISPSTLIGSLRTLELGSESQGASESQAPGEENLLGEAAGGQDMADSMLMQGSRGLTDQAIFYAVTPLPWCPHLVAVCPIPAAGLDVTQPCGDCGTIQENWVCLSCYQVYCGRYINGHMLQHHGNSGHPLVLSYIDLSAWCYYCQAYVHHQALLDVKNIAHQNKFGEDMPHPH
Sequence of recombinant human HDAC8 (Q9BY41 whole entry): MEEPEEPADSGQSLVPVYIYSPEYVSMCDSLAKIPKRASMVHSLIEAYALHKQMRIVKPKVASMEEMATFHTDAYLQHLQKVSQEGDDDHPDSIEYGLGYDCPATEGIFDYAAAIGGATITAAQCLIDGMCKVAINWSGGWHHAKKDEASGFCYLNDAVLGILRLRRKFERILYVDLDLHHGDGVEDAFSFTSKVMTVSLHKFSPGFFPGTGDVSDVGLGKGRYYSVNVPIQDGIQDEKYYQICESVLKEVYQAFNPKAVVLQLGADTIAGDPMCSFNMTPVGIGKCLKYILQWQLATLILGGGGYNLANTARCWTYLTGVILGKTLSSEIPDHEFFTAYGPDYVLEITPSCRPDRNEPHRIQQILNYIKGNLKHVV

Row | Structure (SMILES) | IC50 (recombinant human HDAC8) [nM] | EC50 (HDAC6) [nM] | p21 RP3 [1] | p21 RP10 [1] | p21 RP30 [1]
1 | O=C(NO)c1ccc2c(c1)CC(Nc1nccc(-c3ccc(Cl)cc3Cl)n1)CC2 (centres unmarked) [Example 20, 7-[4-(2,4-Dichloro-phenyl)-pyrimidin-2-ylamino]-5,6,7,8-tetrahydro-naphthalene-2-carboxylic acid hydroxyamide] | 1520 | 6200 | −0.71 | −0.44 | −0.40
2 | Cc1ccc(-c2ccnc(NC3CCc4ccc(C(=O)NO)cc4C3)n2)cn1 (centres unmarked) [Example 25, 7-[4-(6-Methyl-pyridin-3-yl)-pyrimidin-2-ylamino]-5,6,7,8-tetrahydro-naphthalene-2-carboxylic acid hydroxyamide] | 480 | 6200 | 0.30 | 0.13 | 0.08
3 | COc1cncc(-c2ccnc(NC3CCc4ccc(C(=O)NO)cc4C3)n2)c1 (centres unmarked) [Example 27, 7-[4-(5-Methoxy-pyridin-3-yl)-pyrimidin-2-ylamino]-5,6,7,8-tetrahydro-naphthalene-2-carboxylic acid hydroxyamide] | 520 | 1900 | 0.35 | 0.05 | −0.09
4 | O=C(NO)c1ccc2c(c1)CC(Nc1nccc(-c3cccnc3Cl)n1)CC2 (centres unmarked) [Example 30, 7-[4-(2-Chloro-pyridin-3-yl)-pyrimidin-2-ylamino]-5,6,7,8-tetrahydro-naphthalene-2-carboxylic acid hydroxyamide] | 510 | 600 | 0.40 | 0.10 | −0.03
5 | Cc1cc(Oc2ccccc2)nc(NC2CCc3ccc(C(=O)NO)cc3C2)n1 (centres unmarked) [Example 32, 7-(4-Methyl-6-phenoxy-pyrimidin-2-ylamino)-5,6,7,8-tetrahydro-naphthalene-2-carboxylic acid hydroxyamide] | 1500 | 5200 | 0.26 | 0.15 | −0.04
6 | O=C(NO)c1ccc2c(c1)CC(Nc1ncc3cc(F)ccc3n1)CC2 (centres unmarked) [Example 35, 7-(6-Fluoro-quinazolin-2-ylamino)-5,6,7,8-tetrahydro-naphthalene-2-carboxylic acid hydroxyamide] | 1780 | 930 | −0.86 | −0.30 | –
7 | O=C(NC1CCc2ccc(C(=O)NO)cc2C1)OCc1cccnc1 (centres unmarked) [Example 38] | 1270 | 930 | 0.15 | 0.05 | 0.02
8 | CCCCS(=O)(=O)NC1CCc2ccc(C(=O)NO)cc2C1 (centres unmarked) [Example 39, 7-(Butane-1-sulfonylamino)-5,6,7,8-tetrahydro-naphthalene-2-carboxylic acid hydroxyamid] | 910 | 4200 | 0.08 | 0.03 | 0.04

Further molecules by falling IC50 (recombinant human HDAC8), results first:

Row | IC50 (recombinant human HDAC8) [nM] | EC50 (HDAC6) [nM] | Structure (SMILES) | p21 RP3 [1] | p21 RP10 [1] | p21 RP30 [1]
9 | 2240 | 6000 | O=C(NO)c1ccc2c(c1)CC(Nc1nccc(-c3ccc(F)c(Cl)c3)n1)CC2 (centres unmarked) [Example 22, 7-[4-(3-Chloro-4-fluoro-phenyl)-pyrimidin-2-ylamino]-5,6,7,8-tetrahydro-naphthalene-2-carboxylic acid hydroxyamide] | −0.87 | −0.59 | −0.52
10 | 2150 | 9530 | Cc1cc(Cl)ccc1-c1ccnc(NC2CCc3ccc(C(=O)NO)cc3C2)n1 (centres unmarked) [Example 21, 7-[4-(4-Chloro-2-methyl-phenyl)-pyrimidin-2-ylamino]-5,6,7,8-tetrahydro-naphthalene-2-carboxylic acid hydroxyamide] | −0.24 | −0.28 | −0.32
11 | 1690 | 5000 | O=C(NO)c1ccc2c(c1)CC(Nc1nccc(-c3ccc(C(F)(F)F)cc3)n1)CC2 (centres unmarked) [Example 19, 7-[4-(4-Trifluoromethyl-phenyl)-pyrimidin-2-ylamino]-5,6,7,8-tetrahydro-naphthalene-2-carboxylic acid hydroxyamid] | −0.18 | −0.26 | −0.29
12 | 1230 | 1370 | COc1ccc(-c2ccnc(NC3CCc4ccc(C(=O)NO)cc4C3)n2)c(OC)c1 (centres unmarked) [Example 18, 7-[4-(2,4-Dimethoxy-phenyl)-pyrimidin-2-ylamino]-5,6,7,8-tetrahydro-naphthalene-2-carboxylic acid hydroxyamide] | 0.43 | 0.06 | −0.06
13 | 1100 | 2300 | Cc1ccc(-c2ccnc(NC3CCc4ccc(C(=O)NO)cc4C3)n2)c(F)c1 (centres unmarked) [Example 17, 7-[4-(2-Fluoro-4-methyl-phenyl)-pyrimidin-2-ylamino]-5,6,7,8-tetrahydro-naphthalene-2-carboxylic acid hydroxyamide] | −0.56 | −0.47 | −0.45
14 | 1000 | 5470 | COc1ccc(-c2ccnc(NC3CCc4ccc(C(=O)NO)cc4C3)n2)cn1 (centres unmarked) [Example 28, 7-[4-(6-Methoxy-pyridin-3-yl)-pyrimidin-2-ylamino]-5,6,7,8-tetrahydro-naphthalene-2-carboxylic acid hydroxyamide] | −0.20 | −0.19 | −0.24
15 | 900 | 1430 | O=C(NO)c1ccc2c(c1)CC(Nc1nccc(-c3ccc(Cl)nc3)n1)CC2 (centres unmarked) [Example 29, 7-[4-(6-Chloro-pyridin-3-yl)-pyrimidin-2-ylamino]-5,6,7,8-tetrahydro-naphthalene-2-carboxylic acid hydroxyamide] | 0.39 | 0.07 | −0.02
16 | 520 | 1520 | Cc1cncc(-c2ccnc(NC3CCc4ccc(C(=O)NO)cc4C3)n2)c1 (centres unmarked) [Example 26, 7-[4-(5-Methyl-pyridin-3-yl)-pyrimidin-2-ylamino]-5,6,7,8-tetrahydro-naphthalene-2-carboxylic acid hydroxyamide] | 0.68 | 0.20 | −0.05
17 | 480 | 7860 | O=C(NO)c1ccc2c(c1)CC(Nc1nccc(-c3cnc4ccccc4c3)n1)CC2 (centres unmarked) [Example 34, 7-(4-Quinolin-3-yl-pyrimidin-2-ylamino)-5,6,7,8-tetrahydro-naphthalene-2-carboxylic acid hydroxyamide] | 0.42 | 0.31 | −0.02
18 | 320 | 6700 | O=C(NO)c1ccc2c(c1)CC(Nc1nccc(-c3ccc(N4CCOCC4)nc3)n1)CC2 (centres unmarked) [Example 31, 7-[4-(6-Morpholin-4-yl-pyridin-3-yl)-pyrimidin-2-ylamino]-5,6,7,8-tetrahydro-naphthalene-2-carboxylic acid hydroxyamide] | 0.18 | 0.19 | 0.12
